{"source": "patent US20160354326A1", "about": "“LOCAL ANESTHETIC SOLUTION FOR DENTAL AND/OR CONTRAST MEDIA USE” (priority 2014, published 2016)", "origin": "cited, not measured here"}
{"conditions": "dissolved in solution; sucrose standard = 1"}
{"smiles": "OC[C@H]1O[C@@](CO)(O[C@H]2O[C@H](CO)[C@@H](O)[C@H](O)[C@H]2O)[C@@H](O)[C@@H]1O", "note": "[Sucrose]", "sweetness perception rating (times the sweetness of sucrose in solution)": 1}
{"smiles": "O=C(CO)[C@@H](O)[C@H](O)[C@H](O)CO", "note": "[fructose]", "sweetness perception rating (times the sweetness of sucrose in solution)": 1.7}
{"smiles": "OC[C@@H](O)[C@@H](O)[C@H](O)[C@@H](O)CO", "note": "[Sorbitol]", "sweetness perception rating (times the sweetness of sucrose in solution)": 0.6}
